Assays:
Assay in all cases: relative viability (nuclei count vs DMSO), 5 days (fraction); higher = more cells survive
[1] = compound: C1CC2=C(C1)C=C(C=C2)OC3=NC(=C4C(=N3)N(C=N4)CC5=CC=C(C=C5)C6=CC=CC=C6)N[C@@H](CC7=CC=CC=C7)CO [QS11] + N=C(N)NC(=N)NCCc1ccccc1 [Phenformin] (partner 250 µM)
Outline: (§1)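 Lung cancer cell lines were seeded in 1536-well plates and dosed by pin tool the next day, with either a single drug or a fixed anchor-drug dose combined with five library-drug doses (not always all listed) spaced in √10 steps. Five days later, one step fixed the cells and stained their nuclei (final 0.05% Triton X-100, 1% formaldehyde, 1 ug/ml Hoechst), and nuclei were counted on 4× images. Relative viability is the nuclei count in treated wells divided by the count in vehicle wells, and each value is the median of duplicate plates.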

[2] = compound: C[As](C)SC[C@H](NC(=O)CC[C@H](N)C(=O)O)C(=O)NCC(=O)O [Darinaparsin] + Cc1cc(Nc2cc(N3CCN(C)CC3)nc(Sc3ccc(NC(=O)C4CC4)cc3)n2)n[nH]1 [Tozasertib] (partner 0.1 µM)
Outline: as §1

[3] = compound: CC1=C(C=C(C=C1)NC(=O)C2=CC(=CC=C2)C(C)(C)C#N)NC3=CC4=C(C=C3)N=CN(C4=O)C [AZ628] + N=C(N)NC(=N)NCCc1ccccc1 [Phenformin] (partner 250 µM)
Outline: as §1

[4] = compound: CC1=C(C=C(C=C1)NC(=O)C2=CC(=CC=C2)C(C)(C)C#N)NC3=CC4=C(C=C3)N=CN(C4=O)C [AZ628] + C[C@@H](Oc1cc(-c2cnn(C3CCNCC3)c2)cnc1N)c1c(Cl)ccc(F)c1Cl [Crizotinib] (partner 1 µM)
Outline: as §1

| Cell Line | relative viability ([1]; first compound 0.08 µM) | relative viability ([1]; first compound 0.253 µM) | relative viability ([1]; first compound 0.8 µM) | relative viability ([1]; first compound 2.53 µM) | relative viability ([1]; first compound 8 µM) | relative viability ([2]; first compound 0.08 µM) | relative viability ([2]; first compound 0.8 µM) | relative viability ([2]; first compound 2.53 µM) | relative viability ([2]; first compound 8 µM) | relative viability ([3]; first compound 0.08 µM) | relative viability ([3]; first compound 0.253 µM) | relative viability ([3]; first compound 0.8 µM) | relative viability ([3]; first compound 2.53 µM) | relative viability ([3]; first compound 8 µM) | relative viability ([4]; first compound 0.08 µM) | relative viability ([4]; first compound 0.253 µM) | relative viability ([4]; first compound 0.8 µM) | relative viability ([4]; first compound 2.53 µM) | relative viability ([4]; first compound 8 µM) |
| --- | --- | --- | --- | --- | --- | --- | --- | --- | --- | --- | --- | --- | --- | --- | --- | --- | --- | --- | --- |
| 201T | 0.468 | 0.399 | 0.4 | 0.414 | 0.376 | 1.04 | 0.914 | 0.994 | 1.12 | 0.507 | 0.455 | 0.245 | 0.438 | 0.445 | 1.05 | 0.999 | 1.06 | 1.06 | 1.08 |
| A549 | 0.115 | 0.256 | 0.154 | 0.125 | 0.197 | – | – | – | – | 0.19 | 0.161 | 0.136 | 0.135 | 0.141 | 0.702 | 0.728 | 0.697 | 0.712 | 0.382 |
| A-427 | 0.286 | 0.358 | – | 0.34 | 0.363 | 0.2 | 0.215 | 0.177 | 0.193 | 0.207 | 0.242 | 0.25 | 0.245 | 0.181 | 0.641 | 0.74 | 0.69 | 0.665 | 0.251 |
| ABC-1 | 0.238 | 0.259 | 0.281 | 0.292 | 0.268 | 0.169 | 0.205 | 0.2 | 0.192 | 0.274 | 0.188 | 0.205 | 0.211 | 0.235 | 1.37 | 1.25 | 0.844 | 1.02 | 0.808 |
| BEN | 0.262 | 0.3 | 0.29 | 0.258 | 0.251 | 0.489 | 0.498 | 0.463 | 0.444 | 0.265 | 0.331 | 0.268 | 0.27 | 0.231 | 0.98 | 0.881 | 0.698 | 0.966 | 0.825 |
| CAL-12T | 0.571 | 0.572 | 0.552 | 0.594 | 0.561 | 0.343 | 0.3 | 0.326 | 0.341 | 0.553 | 0.492 | 0.335 | 0.414 | 0.336 | 0.871 | – | 0.565 | 0.622 | 0.361 |
| COR-L23 | 0.461 | 0.452 | 0.44 | 0.39 | 0.366 | 0.208 | 0.225 | 0.24 | 0.196 | 0.54 | 0.476 | 0.433 | 0.445 | 0.333 | 0.619 | 0.736 | 0.666 | 0.59 | 0.365 |
| COR-L 105 | 0.511 | 0.407 | 0.475 | 0.501 | 0.475 | 0.316 | 0.369 | 0.315 | 0.32 | 0.541 | 0.483 | 0.4 | 0.488 | 0.323 | 1.07 | 0.728 | 0.744 | 0.757 | 0.438 |
| Calu-6 | – | – | – | – | – | – | – | – | – | – | – | – | – | – | 0.753 | 0.678 | 0.605 | 0.577 | 0.153 |
| ChaGo-K-1 | 0.366 | 0.561 | 0.542 | 0.588 | 0.421 | 0.266 | 0.206 | 0.242 | 0.232 | 0.559 | 0.464 | 0.398 | 0.459 | 0.373 | 1.18 | – | 1.15 | 1.11 | 1.16 |
| EBC-1 | – | – | – | – | – | – | – | – | – | – | – | – | – | – | 0.201 | 0.212 | 0.169 | 0.197 | 0.168 |
| EKVX | 0.228 | 0.224 | – | 0.228 | 0.255 | 0.431 | 0.448 | 0.32 | 0.4 | 0.241 | 0.222 | 0.187 | 0.232 | 0.211 | 1.16 | 0.913 | 1 | 0.975 | 0.751 |
| EMC-BAC-2 | 0.519 | 0.579 | 0.53 | 0.463 | 0.44 | 0.251 | 0.28 | 0.299 | 0.277 | 0.584 | 0.57 | 0.432 | 0.602 | 0.505 | 0.809 | 0.759 | 0.76 | 0.795 | 0.874 |
| EPLC-272H | – | 0.327 | 0.312 | 0.287 | 0.304 | – | 0.308 | 0.229 | 0.277 | 0.419 | 0.37 | 0.363 | 0.302 | 0.2 | 0.904 | 0.957 | 0.848 | 0.851 | 0.813 |
| H3255 | 0.341 | 0.351 | – | 0.418 | 0.363 | 0.605 | 0.585 | 0.63 | 0.598 | 0.41 | 0.33 | 0.337 | 0.393 | 0.302 | 0.926 | 0.921 | 0.949 | 0.866 | 0.704 |
| HARA | 0.368 | 0.448 | – | 0.479 | 0.63 | 0.153 | 0.103 | 0.125 | 0.0804 | 0.527 | 0.402 | 0.409 | 0.465 | 0.376 | 0.904 | 1.05 | 0.951 | 0.82 | 0.476 |

— the supplement of paper PMC10307832
